Test results as given in patent publication US20260258032A1, “TYROSINE KINASE 2 INHIBITORS AND USES THEREOF” (BIOGEN MA INC., priority 2022, published 2026).
Counter-ions that a name gives are not always drawn.

Experiments:
JH2 domain of human Tyk2 = target: T1, JH2 domain of human Tyk2 (Homo sapiens, UniProt P29597); test: JH2 biochemical assay (TR-FRET probe displacement); assay type: binding
T1 construct: 10×His-tagged TYK2 JH2 domain (amino acid 575-876)
Method in brief: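 10×His-tagged human TYK2 JH2 (aa 575-876, 2 nM) incubated 60 min with 2 nM fluorescent probe, 0.1 nM Tb anti-His antibody and compound (10-point 3-fold series from […] top). TR-FRET 520/495 nm ratio, falling with probe displacement, normalized and fitted to a 4-parameter logistic for IC50.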

[1] = test system: Tyk2 kinase activity on STAT4; test: pSTAT4 cell assay (MSD, NK92 cells); assay type: cell-based; settings: compounds 1 hr
Method in brief: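 IC50 values derive from 4-parameter logistic fits of normalized percent activity against log compound concentration. Phospho-STAT was measured by MSD with anti-STAT4 antibodies after 15 min of 30 ng/mL IL2 in serum-starved NK92 cells pretreated 1 hr with compound.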

[2] = TR-FRET probe displacement, JH2 domain of human Tyk2

T1 sequence (P29597 575-876): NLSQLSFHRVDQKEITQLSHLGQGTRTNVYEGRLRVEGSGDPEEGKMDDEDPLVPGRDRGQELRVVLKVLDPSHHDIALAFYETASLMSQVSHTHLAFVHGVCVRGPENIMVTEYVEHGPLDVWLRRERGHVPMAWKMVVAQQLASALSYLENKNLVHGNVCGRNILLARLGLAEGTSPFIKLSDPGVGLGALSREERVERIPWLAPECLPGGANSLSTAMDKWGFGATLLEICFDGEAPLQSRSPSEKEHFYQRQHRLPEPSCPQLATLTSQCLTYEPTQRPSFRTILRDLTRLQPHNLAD

Structure (SMILES) | IC50 (JH2 domain of human Tyk2; JH2 biochemical assay) [nM] | IC50 ([1]; stimulated 15 minutes) [nM] | IC50 (JH2 domain of human Tyk2; [2]) [nM] | IC50 ([1]; then stimulated 15 minutes) [nM]
CC(=O)Nc1cc2c(cn1)C1(CC1)CN2c1cc(C)nc(CC2CC2)n1 [Example 62, N-(1′-(2-(cyclopropylmethyl)-6-methylpyrimidin-4-yl)-1′,2′-dihydrospiro[cyclopropane-1,3′-pyrrolo[3,2-c]pyridin]-6′-yl)acetamide] | ≤ 10 | 100 to 1000 | – | –
CC(=O)Nc1cc2c(cn1)C1(CC1)CN2c1cc(C)nc(C(C)S(C)(=O)=O)n1 (centres unmarked) [Example 97, N-(1′-(6-methyl-2-(1-(methylsulfonyl)ethyl)pyrimidin-4-yl)-1′,2′-dihydrospiro[cyclopropane-1,3′-pyrrolo[3,2-c]pyridin]-6′-yl)acetamide] | ≤ 10 | 100 to 1000 | – | –
CC(=O)Nc1cc2c(cn1)C1(CC1)CN2c1cc(C)nc(N2CCN(C)CC2)n1 [Example 227, N-(1′-(6-methyl-2-(4-methylpiperazin-1-yl)pyrimidin-4-yl)-1′,2′-dihydrospiro[cyclopropane-1,3′-pyrrolo[3,2-c]pyridin]-6′-yl)acetamide] | 100 to 1000 | ≥ 1000 | – | –
CC(=O)Nc1cc2c(cn1)C1(CC1)CN2c1cc(C)nc(OCC23CC(C)(CO2)C3)n1 [Example 371, N-(1′-(6-methyl-2-((4-methyl-2-oxabicyclo[2.1.1]hexan-1-yl)methoxy)pyrimidin-4-yl)-1′,2′-dihydrospiro[cyclopropane-1,3′-pyrrolo[3,2-c]pyridin]-6′-yl)acetamide] | ≥ 1000 | ≥ 1000 | – | –
COc1ccc(N2CC3(CC3)c3cnc(NC(C)=O)cc32)nc1C(C)(F)F [Example 8, N-(1′-(6-(1,1-difluoroethyl)-5-methoxypyridin-2-yl)-1′,2′-dihydrospiro[cyclopropane-1,3′-pyrrolo[3,2-c]pyridin]-6′-yl)acetamide] | ≤ 10 | 100 to 1000 | – | –
CCn1ncc(-c2cc(N3CC4(CC4)c4cnc(NC(C)=O)cc43)nc(C(C)(F)F)n2)c1F [Example 301, N-(1′-(2-(1,1-difluoroethyl)-6-(1-ethyl-5-fluoro-1H-pyrazol-4-yl)pyrimidin-4-yl)-1′,2′-dihydrospiro[cyclopropane-1,3′-pyrrolo[3,2-c]pyridin]-6′-yl)acetamide] | ≤ 10 | 10 to 100 | – | –
CC(=O)Nc1cc2c(cn1)C1(CC1)CN2c1cc(C)nc(-c2cnn(C(C)C)c2)n1 [Example 249, N-(1′-(2-(1-isopropyl-1H-pyrazol-4-yl)-6-methylpyrimidin-4-yl)-1′,2′-dihydrospiro[cyclopropane-1,3′-pyrrolo[3,2-c]pyridin]-6′-yl)acetamide] | 10 to 100 | ≥ 1000 | – | –
CC(=O)Nc1cc2c(cn1)C1(CC1)CN2c1cc(C(C)(F)F)nc(Cl)n1 [Example 282, N-(1′-(2-chloro-6-(1,1-difluoroethyl)pyrimidin-4-yl)-1′,2′-dihydrospiro[cyclopropane-1,3′-pyrrolo[3,2-c]pyridin]-6′-yl)acetamide] | 100 to 1000 | ≥ 1000 | – | –
CCc1cc(N2CC3(CC3)c3cnc(NC(N)=O)cc32)nc(C(C)(F)F)n1 [Example 309, 1-(1′-(2-(1,1-difluoroethyl)-6-ethylpyrimidin-4-yl)-1′,2′-dihydrospiro[cyclopropane-1,3′-pyrrolo[3,2-c]pyridin]-6′-yl)urea] | ≤ 10 | ≤ 10 | – | –
CC(=O)Nc1cc2c(cn1)C1(CC1)CN2c1cc(C2=COCC2)nc(C(C)(F)F)n1 [Example 296, N-(1′-(2-(1,1-difluoroethyl)-6-(4,5-dihydrofuran-3-yl)pyrimidin-4-yl)-1′,2′-dihydrospiro[cyclopropane-1,3′-pyrrolo[3,2-c]pyridin]-6′-yl)acetamide trifluoroacetate] | ≤ 10 | 100 to 1000 | – | –
CC(=O)Nc1cc2c(cn1)C1(CC1)CN2c1cc(C)cc(OC(C)C)n1 [Example 334, N-(1′-(6-isopropoxy-4-methylpyridin-2-yl)-1′,2′-dihydrospiro[cyclopropane-1,3′-pyrrolo[3,2-c]pyridin]-6′-yl)acetamide trifluoroacetate] | 10 to 100 | ≥ 1000 | – | –
COCCOc1nc(N2CC3(CC3)c3cnc(NC(C)=O)cc32)cc(C(C)(F)F)n1 [Example 287, N-(1′-(6-(1,1-difluoroethyl)-2-(2-methoxyethoxy)pyrimidin-4-yl)-1′,2′-dihydrospiro[cyclopropane-1,3′-pyrrolo[3,2-c]pyridin]-6′-yl)acetamide] | ≤ 10 | 100 to 1000 | – | –
CC(=O)Nc1cc2c(cn1)C1(CC1)CN2c1cc(-c2cnn(C(F)F)c2)nc(C(C)(F)F)n1 [Example 383, N-(1′-(2-(1,1-difluoroethyl)-6-(1-(difluoromethyl)-1H-pyrazol-4-yl)pyrimidin-4-yl)-1′,2′-dihydrospiro[cyclopropane-1,3′-pyrrolo[3,2-c]pyridin]-6′-yl)acetamide trifluoroacetate] | – | – | ≤ 10 | 10 to 100
CCCNc1cc(N2CC3(CC3)c3cnc(NC(C)=O)cc32)nc(C(C)(F)F)n1 [Example 156, N-(1′-(2-(1,1-difluoroethyl)-6-(propylamino)pyrimidin-4-yl)-1′,2′-dihydrospiro[cyclopropane-1,3′-pyrrolo[3,2-c]pyridin]-6′-yl)acetamide trifluoroacetate] | ≤ 10 | ≤ 10 | – | –
CC(=O)Nc1cc2c(cn1)C1(CC1)CN2c1cc(C)nc(N2CC(C(F)F)C2)n1 [Example 222, N-(1′-(2-(3-(difluoromethyl)azetidin-1-yl)-6-methylpyrimidin-4-yl)-1′,2′-dihydrospiro[cyclopropane-1,3′-pyrrolo[3,2-c]pyridin]-6′-yl)acetamide] | 10 to 100 | ≥ 1000 | – | –
CCC(=O)Nc1cc2c(cn1)C1(CC1)CN2c1ccnc(C(C)(F)F)n1 [Example 89, N-(1′-(2-(1,1-difluoroethyl)pyrimidin-4-yl)-1′,2′-dihydrospiro[cyclopropane-1,3′-pyrrolo[3,2-c]pyridin]-6′-yl)propionamide] | ≤ 10 | 100 to 1000 | – | –
CC(=O)Nc1cc2c(cn1)C1(CC1)CN2c1cc([C@H]2C[C@H](C#N)C2)nc(C(C)(F)F)n1 [Example 75, N-(1′-(6-((1r,3r)-3-cyanocyclobutyl)-2-(1,1-difluoroethyl)pyrimidin-4-yl)-1′,2′-dihydrospiro[cyclopropane-1,3′-pyrrolo[3,2-c]pyridin]-6′-yl)acetamide or N-(1′-(6-((1s,3s)-3-cyanocyclobutyl)-2-(1,1-difluoroethyl)pyrimidin-4-yl)-1′,2′-dihydrospiro[cyclopropane-1,3′-pyrrolo[3,2-c]pyridin]-6′-yl)acetamide] | ≤ 10 | 100 to 1000 | – | –
COC1CC1Nc1cc(N2CC3(CC3)c3cnc(NC(C)=O)cc32)nc(C(C)(F)F)n1 (centres unmarked) [Example 177, N-(1′-(2-(1,1-difluoroethyl)-6-((2-methoxycyclopropyl)amino)pyrimidin-4-yl)-1′,2′-dihydrospiro[cyclopropane-1,3′-pyrrolo[3,2-c]pyridin]-6′-yl)acetamide] | ≤ 10 | 10 to 100 | – | –
CC(=O)Nc1cc2c(cn1)C1(CC1)CN2c1cc(C)cc(N2CCC(C)(C#N)C2)n1 (centres unmarked) [Example 404, N-(1′-(6-(3-cyano-3-methylpyrrolidin-1-yl)-4-methylpyridin-2-yl)-1′,2′-dihydrospiro[cyclopropane-1,3′-pyrrolo[3,2-c]pyridin]-6′-yl)acetamide] | – | – | 10 to 100 | ≥ 1000
CC(=O)Nc1cc2c(cn1)C1(CC1)CN2c1cc(NC2COC2)nc(C(C)(F)F)n1 [Example 285, N-(1′-(2-(1,1-difluoroethyl)-6-(oxetan-3-ylamino)pyrimidin-4-yl)-1′,2′-dihydrospiro[cyclopropane-1,3′-pyrrolo[3,2-c]pyridin]-6′-yl)acetamide] | ≤ 10 | 10 to 100 | – | –
CC(=O)Nc1cc2c(cn1)C1(CC1)CN2c1cc(C)nc(OC2CC(F)C2)n1 (centres unmarked) [Example 377, N-(1′-(2-(3-fluorocyclobutoxy)-6-methylpyrimidin-4-yl)-1′,2′-dihydrospiro[cyclopropane-1,3′-pyrrolo[3,2-c]pyridin]-6′-yl)acetamide] | – | – | 10 to 100 | ≥ 1000
CC(=O)Nc1cc2c(cn1)C1(CC1)CN2c1cc(C)cc(OC2COC2)n1 [Example 341, N-(1′-(4-methyl-6-(oxetan-3-yloxy)pyridin-2-yl)-1′,2′-dihydrospiro[cyclopropane-1,3′-pyrrolo[3,2-c]pyridin]-6′-yl)acetamide trifluoroacetate] | ≥ 1000 | ≥ 1000 | – | –
CC(=O)Nc1cc2c(cn1)C1(CC1)CN2c1cc(C)nc(N2CCOCC2)n1 [Example 213, N-(1′-(6-methyl-2-morpholinopyrimidin-4-yl)-1′,2′-dihydrospiro[cyclopropane-1,3′-pyrrolo[3,2-c]pyridin]-6′-yl)acetamide] | 10 to 100 | ≥ 1000 | – | –
CC(=O)Nc1cc2c(cn1)C1(CC1)CN2c1cc(C)nc(C(F)F)n1 [Example 63, N-(1′-(2-(difluoromethyl)-6-methylpyrimidin-4-yl)-1′,2′-dihydrospiro[cyclopropane-1,3′-pyrrolo[3,2-c]pyridin]-6′-yl)acetamide] | 10 to 100 | ≥ 1000 | – | –
CC(=O)Nc1cc2c(cn1)C1(CC1)CN2c1cncc(C(C)(F)F)n1 [Example 101, N-(1′-(6-(1,1-difluoroethyl)pyrazin-2-yl)-1′,2′-dihydrospiro[cyclopropane-1,3′-pyrrolo[3,2-c]pyridin]-6′-yl)acetamide] | ≤ 10 | 100 to 1000 | – | –
